# Test results taken from publication PMC11944515, “Host-Mediated Antimicrobial Effects and NLRP3 Inflammasome Modulation by Caulerpin and Its Derivatives in Macrophage Models of Mycobacterial Infections” (Microorganisms, 2025).
# Legend:
# [1] = test system: M. smegmatis within RAW 264.7 macrophages; assay: Preventive effects (pre-incubation) in M. smegmatis-infected RAW 264.7 cells (CFU); type: cell-based, Mycobacterium smegmatis; conditions: for reduction of bacterial loads after pre-incubation, M. smegmatis / reduction of CFU counts after re-treatment, M. smegmatis: 15 μM; for reduction of CFU counts after re-treatment, M. smegmatis: pre-incubation and re-treatment, 12 h after infection
# Protocol: For the second in vitro cellular infection test with M. smegmatis, RAW 264.7 were seeded in 96-well culture plates at a density of 1 × 10^4 cells/well in DMEM medium (with 10% FBS, without antibiotics) and incubated overnight at 37 °C with 5% CO2. Cells were pre-incubated with CP (15 μM), CA (30 μM), DE (15 μM), and DP (15 μM) for 8 h in DMEM medium. Infection of RAW 264.7 cells with M. smegmatis was performed at a multiplicity of infection of 1:1 for 2 h at 37 °C with 5% CO2 [20]. Infected RAW 264.7 were then lysed with 0.1% Triton–X100, and these suspensions were diluted and plated on LB agar. Remaining wells were then re-treated with the tested substances in DMEM medium. Macrophages were lysed after 12 h, and these suspensions were diluted and plated on LB prior to CFU counting. CFU/well was determined as previously described in the infection experiments using macrophages and M. smegmatis.
# [2] = test system: M. tuberculosis H37Ra; assay: M. tuberculosis susceptibility by CFU enumeration; type: cell-based, Mycobacterium tuberculosis; conditions: H37Ra, 48 h, CFU
# Protocol: Next, CP, CA, and DE were diluted in Middlebrook 7H9 plus 10% OADC for the cellular susceptibility assay with M. tuberculosis H37Ra to yield concentrations up to 15 µM, 30 µM, and 15 µM, respectively. RIF at 0.03 µM was used as a positive control. The final DMSO concentration in all wells was 2.5%. The M. tuberculosis suspension was diluted in 7H9 plus 10% OADC to achieve an optical density of 0.006 at 595 nm, and 100 μL was then added to each well. Plates were covered, sealed with parafilm, and incubated at 37 °C for 48 h. After incubation, aliquots were removed, diluted, and plated in Middlebrook 7H10 agar plus 10% OADC. Plates were incubated at 37 °C for 4 weeks, and CFU were counted. CFU numbers were expressed as log10(CFU/mL).
# [3] = test system: M. smegmatis within RAW 264.7 macrophages; assay: Therapeutic potential in M. smegmatis-infected RAW 264.7 cells (CFU); type: cell-based, Mycobacterium smegmatis; conditions: 24 h of treatment after infection; for reduction of bacterial burden, M. smegmatis within RAW 264.7: 15 μM, vs untreated controls
# Protocol: For the first in vitro infection test with M. smegmatis, RAW 264.7 were seeded in 96-well culture plates at a density of 1 × 10^4 cells/well in DMEM medium (with 10% FBS, without antibiotics) and incubated overnight at 37 °C with 5% CO2 [20]. Infection of RAW 264.7 cells with M. smegmatis mc^2155 was performed at a multiplicity of infection of 1:1 for 2 h at 37 °C with 5% CO2. The medium with non-internalized bacteria was removed, and infected cells were then treated with the tested substances in DMEM: CP (15 µM, 7.5 µM and 3.25 µM), CA (30 µM, 15 µM, 7.5 µM and 3.25 µM), DE (15 µM, 7.5 µM and 3.25 µM), and DP (15 µM, 7.5 µM and 3.25 µM). Macrophages were lysed after 24 h with 0.1% Triton–X100, and these suspensions were diluted and plated on LB. CFU was determined after incubation of plates for 3 days at 37 °C. CFU numbers were expressed as log (CFU/well).
# [4] = test system: HepG2 cells; assay: Cytotoxicity on HepG2 cells (MTT); type: cell-based, human; conditions: 24 h; for effect on HepG2 cell viability: 30 to 120 µM, MTT; for IC50: Homo sapiens, HepG2, estimated
# Protocol: Cytotoxicity was evaluated using the MTT method. For this purpose, two cell lines were tested: Vero E6 and HepG2. Both cell lines were seeded at 1 × 10^4 cells/well in 96-well microtiter plates and incubated overnight to adhere. The culture medium was carefully aspirated and replaced with 100 µL DMEM plus 100 µL of test compound solutions (CP, CA, and DE), yielding final concentrations ranging from 30 to 120 µM (1% DMSO, v/v). Cells were incubated with test compounds for 24 h at 37 °C in a 5% CO2 atmosphere. MTT solution (0.5 mg/mL) was subsequently added, and cells were incubated for an additional 3 h. The resulting formazan crystals were dried at room temperature for 24 h and dissolved in DMSO. Absorbance was measured at 570 nm (microplate reader EL800, BioTek, Winooski, VT, USA). Cell viability was calculated as previously described in the RAW 264.7 cell viability assay section.
# [5] = test system: M. tuberculosis H37Ra in RAW 264.7 macrophages; assay: Preventive effects (pre-incubation) in M. tuberculosis-infected RAW 264.7 cells (CFU); type: cell-based, Mycobacterium tuberculosis; conditions: for effect on M. tuberculosis CFU counts after pre-incubation and re-treatment: 12 h after infection
# Protocol: For the second cellular infection test with M. tuberculosis H37Ra, RAW 264.7 cells were seeded in 96-well culture plates at a density of 4 × 10 ^3 cells/well in DMEM medium (with 10% FBS, without antibiotics) and incubated overnight at 37 °C with 5% CO2. Cells were pre-incubated with the CP (15 µM), DE (15 µM), and CA (30 µM) compounds. Infection of RAW 264.7 cells with M. tuberculosis was performed at a multiplicity of infection of 1:1 for 3 h at 37 °C with 5% CO2 [20]. Infected RAW 264.7 were then lysed with 0.1% Triton-X100, and suspensions were diluted and plated on Middlebrook 7H10 agar plus OADC. Remaining wells were then re-treated with the test substances in DMEM medium. Macrophages were lysed after 12 h and plated on Middlebrook 7H10 containing OADC prior to CFU counting. CFU/well was determined as previously described in the infection experiments using macrophages and M. smegmatis.
# [6] = test system: RAW 264.7 cells; assay: Direct effects on RAW 264.7 cell viability (MTT); type: cell-based, murine
# Protocol: The direct effects of CP and its analogues on RAW 264.7 viability were evaluated using the MTT method. RAW 264.7 cells were seeded at 1 × 10^4 cells/well (for 24 h incubation) and 5 × 10^3 cells/well (for 48 h incubation) and incubated overnight to allow adhesion. The culture medium was carefully aspirated and replaced with 100 μL DMEM plus 100 μL of test compound solutions, yielding final concentrations ranging from 3.25 to 30 µM (DMSO 1%, v/v). After 24 or 48 h of exposure to test compounds, cells were incubated with MTT (0.5 mg/mL) for 3 h. The resulting formazan crystals were dried, dissolved in DMSO, and absorbance was measured at 570 nm using a microplate reader (EL800, BioTek, Winooski, VT, USA). The precipitated purple formazan crystals were directly proportional to the number of metabolically active viable cells. The cell viability was then calculated as: Cell viability (%) = (Sample absorbance/Control absorbance) × 100. Data were expressed as mean of cell viability ± standard error of the mean from three to four independent experiments performed in triplicate.
# [7] = 8 h pre-incubation, immediately after 2 h of infection
SMILES,"reduction of bacterial loads after pre-incubation, M. smegmatis [1, 7] [log10]","reduction of CFU counts after re-treatment, M. smegmatis [1] [log10]",inhibitory concentration against M. tuberculosis [2],"reduction of bacterial burden, M. smegmatis within RAW 264.7 [3] [log10 CFU]",effect on HepG2 cell viability [4],IC50 [4] [µM],effect on M. tuberculosis CFU counts after pre-incubation and re-treatment ([5]; 15 μM),"effect of pre-incubation on M. tuberculosis bacterial loads ([5]; 15 μM, immediately after 3 h of infection)","effect on RAW 264.7 cell viability ([6]; 24 h incubation, 3.25 to 30 µM)",effect on RAW 264.7 cell viability ([6]; 48 h incubation),"decrease of CFU counts after pre-incubation, M. smegmatis ([1]; 30 μM, 8 h pre-incubation, immediately after 2 h of infection) [log10]","reduction of bacterial counts, M. smegmatis within RAW 264.7 ([3]; 30 μM) [log10]",effect on M. tuberculosis CFU counts after pre-incubation and re-treatment ([5]; 30 μM)
"CCOC(=O)/C1=C/c2c([nH]c3ccccc23)/C(C(=O)OCC)=C\c2c1[nH]c1ccccc21 [DE, (6E,13E)-diethyl 5,12-dihydrocycloocta[1,2-b:5,6-b′]diindole-6,13-dicarboxylate]",0.402,0.182,greater than 15 μM,0.430,did not significantly reduce cell viability,> 120,significant reductions in CFU counts,significantly reduced bacterial loads,affected cell viability at the concentration of 30 μM,did not affect cell viability at any concentration evaluated,,,
"O=C(O)C1=Cc2c([nH]c3ccccc23)C(C(=O)O)=Cc2c1[nH]c1ccccc21 [CA, caulerpinic acid]",,,greater than 30 μM,,did not significantly reduce cell viability,> 120,,,did not affect viability at any of the concentrations tested,did not affect cell viability at any concentration evaluated,0.407,0.243,significant reductions in CFU counts
"COC(=O)/C1=C/c2c([nH]c3ccccc23)/C(C(=O)OC)=C\c2c1[nH]c1ccccc21 [CP, Caulerpin]",0.360,0.287,greater than 15 μM,0.230,did not significantly reduce cell viability,> 120,significant reductions in CFU counts,,affected cell viability at the concentration of 30 μM,"affected cell viability at the 2 highest concentrations tested, 15 and 30 μM",,,
